Experiments:
[1] = test system: MOLM-14 acute myeloid leukemia cell line; assay: WST-1 anticancer cell proliferation assay, MOLM-14; assay type: cell-based; conditions: Table 4; read-out: Acute Myeloid Leukemia cell lines MOLM-14 IC50
Protocol: (§1) Anticancer activity was tested against several standard cancer cell lines including brain, breast, Kaposi sarcoma, leukemia, lung, melanoma, tenosynovial giant cell tumor, ovarian, pancreatic, colon and prostate cancer. Cells were trypsinized and plated into 96 well plates in 50 μl of media and incubated overnight. The next day approximately 18 hours after plating, 50 μl of media containing the required flavonoid-based pharmaceutical composition was added per well. Cells were plated at a density so that 72 hours post drug addition, the cells will be in log phase (500)-2000 cells/well). The compounds and extracts were solubilized in Dimethyl sulfoxide (DMSO). The cells are allowed to proliferate for 72 hours 37° C. in humidified atmosphere of 5% CO2. The experiment is terminated using WST-1 (Roche®) 10 μl per well and absorbance is read at 450 nm %690 nm. The effect of drugs on growth is assessed as percent of cell viability. The IC50 values were determined from the extract dose versus control growth curves using Graphpad Prism® software. All experiments were carried out in duplicate and the mean results determined.

[2] = test system: THP-1 acute myeloid leukemia cell line; assay: WST-1 anticancer cell proliferation assay, THP-1; assay type: cell-based; conditions: Table 4; read-out: Acute Myeloid Leukemia cell lines THP-1 IC50
Protocol: as §1

Normal Bone marrow = assay: Cell viability, normal bone marrow; assay type: cell-based; conditions: Table 4
Protocol: as §1, with “Bioactivity of the above-described compounds has been verified by an anticancer cell proliferation assay using the WST-1 (4-[3-(4-iodophenyl)-2-(4-nitrophenyl)-2H-5-tetrazolio]-1, 3-benzene disulfonate) colorimetric assay by Roche Life Sciences®. Anticancer” for “Anticancer”

NCI-H69 (Small lung) = assay: WST-1 anticancer cell proliferation assay, NCI-H69; assay type: cell-based; conditions: 72 hours
Protocol: as §1, with “Bioactivity of the above-described compounds has been verified by an anticancer cell proliferation assay using the WST-1 (4-[3-(4-iodophenyl)-2-(4-nitrophenyl)-2H-5-tetrazolio]-1, 3-benzene disulfonate) colorimetric assay by Roche Life Sciences®. Anticancer” for “Anticancer”

FLT3(D835V) = molecular target: T1, FLT3(D835V) (Homo sapiens, UniProt P36888, D835V); assay: Kinase competition binding assay, FLT3(D835V); conditions: Table 1 kinase panel
T1 construct: made in house
T1 sequence (P36888 27-993 D835V): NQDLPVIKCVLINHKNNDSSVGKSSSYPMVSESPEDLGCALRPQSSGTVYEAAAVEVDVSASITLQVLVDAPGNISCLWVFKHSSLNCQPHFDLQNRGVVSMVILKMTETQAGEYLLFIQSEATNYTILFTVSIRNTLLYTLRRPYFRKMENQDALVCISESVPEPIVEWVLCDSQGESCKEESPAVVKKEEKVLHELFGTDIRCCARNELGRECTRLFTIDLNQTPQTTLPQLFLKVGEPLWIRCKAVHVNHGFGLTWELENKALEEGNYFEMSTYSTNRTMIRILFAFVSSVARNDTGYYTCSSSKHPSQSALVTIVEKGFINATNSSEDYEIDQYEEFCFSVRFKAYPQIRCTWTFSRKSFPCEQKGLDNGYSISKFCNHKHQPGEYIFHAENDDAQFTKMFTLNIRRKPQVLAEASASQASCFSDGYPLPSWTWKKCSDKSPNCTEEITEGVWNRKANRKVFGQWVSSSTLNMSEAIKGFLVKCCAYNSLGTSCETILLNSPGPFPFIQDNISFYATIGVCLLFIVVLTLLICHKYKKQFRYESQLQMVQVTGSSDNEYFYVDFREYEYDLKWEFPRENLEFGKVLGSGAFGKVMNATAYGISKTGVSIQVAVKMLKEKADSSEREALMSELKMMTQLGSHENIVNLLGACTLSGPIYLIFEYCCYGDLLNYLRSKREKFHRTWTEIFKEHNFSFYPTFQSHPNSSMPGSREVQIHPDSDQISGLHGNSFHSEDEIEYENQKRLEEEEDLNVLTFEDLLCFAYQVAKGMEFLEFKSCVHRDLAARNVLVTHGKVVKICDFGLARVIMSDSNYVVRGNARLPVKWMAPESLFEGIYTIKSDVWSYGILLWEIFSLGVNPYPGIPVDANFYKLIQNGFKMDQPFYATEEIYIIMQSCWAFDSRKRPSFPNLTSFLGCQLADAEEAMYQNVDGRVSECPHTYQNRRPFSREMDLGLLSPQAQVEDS
Protocol: (§2) Cannabis flavonoids and their analogs were subjected to kinase inhibition assay. The compounds were first screened at a single concentration of 10 μM in the primary assay. […]. To determine the kd or IC50 values, competition binding assays were established, authenticated and executed as described previously. Fabian et al., “A Small Molecule-Kinase Interaction Map For Clinical Kinase Inhibitors.”, Nat Biotechnol, 23(3):329-36, Epub (2005). See also, Karaman et al., “A Quantitative Analysis Of Kinase Inhibitor Selectivity”, Nat. Biotechnol. […] For most assays, kinases were fused to T7 phage strains (Fabian, supra) and for the other assays, kinases were produced in HEK-293 cells after which they were tagged with DNA for quantitative PCR detection. In general, full-length constructs were used for small, single domain kinases, and catalytic domain constructs for large multi-domain kinases. The binding assays utilized streptavidin-coated magnetic beads treated with biotinylated small molecule ligands for 30 minutes at room temperature which generated affinity resins for the kinase assays. The liganded beads were blocked with excess biotin and washed with blocking buffer (SeaBlock (Pierce), 1% BSA, 0.05% Tween 20, 1 mM DTT) to remove unbound ligand and to reduce non-specific phage binding. […] Test compounds were prepared as 40× stocks in 100% DMSO and diluted directly into the assay (Final DMSO concentration=2.5%). All reactions were performed in polypropylene 384-well plates in a final volume of 0.04 ml. […] The beads were then re-suspended in elution buffer (1×PBS, 0.05% Tween 20, 0.5 μM non-biotinylated affinity ligand) and incubated at room temperature with shaking for 30 minutes. The kinase concentration in the eluates was measured by quantitative PCR. An illustration of the kinase interaction process is presented below. Kd/IC50 values were determined using a standard dose response curve using the hill equation. Curves were fitted using a non-linear least square fit with the Levenberg-Marquardt algorithm.
(§3) The compound(s) were screened at 10 μM and results for primary screen binding interactions are reported as ‘% Ctrl’, where lower numbers indicate stronger hits in the matrix.

EFGR(L858R, T7790M) = assay: Kinase competition binding assay, EFGR(L858R, T7790M); conditions: Table 1 kinase panel
Protocol: as §2, §3

Row | SMILES | IC50 [1] [µM] | IC50 [2] [µM] | IC50 (Normal Bone marrow) [µM] | IC50 (NCI-H69 (Small lung)) [µM] | IC50 (FLT3(D835V)) [nM] | IC50 (EFGR(L858R, T7790M)) [nM]
1 | COc1cc(-c2oc3cc(O)ccc3c(=O)c2O)ccc1O [FBLGS-81] | 0.7 | > 100 | > 100 | – | – | –
2 | O=c1cc(-c2ccc(O)c(O)c2)oc2cc(O)cc(O)c12 [FBLGS-77] | 7.34 | > 100 | > 100 | – | – | –
3 | COc1cc(-c2cc(=O)c3c(O)c(C/C=C(\C)CCC=C(C)C)c(O)cc3o2)ccc1O [FBL-03A] | – | – | – | 16 | 220 | > 20000
4 | COc1cc(O)c2c(=O)c(O)c(-c3ccc(O)c(O)c3)oc2c1 [FBLGS-79] | 4.84 | > 100 | > 100 | – | – | –
5 | COc1cc(-c2cc(=O)c3c(O)cc(O)c(C/C=C(\C)CCC=C(C)C)c3o2)ccc1O [FBL-03C] | – | – | – | 18 | 190 | 680
6 | COc1cc(O)c2c(=O)c(O)c(-c3ccc(O)c(OC)c3)oc2c1 [FBLGS-80] | 6.12 | > 100 | > 100 | – | – | –
7 | O=C1CC(c2ccc(O)c(O)c2)Oc2cc(O)cc(O)c21 (stereo not drawn) [FBLGS-82] | > 10 | > 100 | > 100 | – | – | –
8 | O=c1c(O)c(-c2ccc(O)c(O)c2)oc2cc(O)ccc12 [FBLGS-83] | 2.35 | 13 | – | – | – | –
9 | COc1ccc(C2CC(=O)c3c(O)cc(O)cc3O2)cc1O (stereo not drawn) [FBLGS-74] | > 100 | > 100 | > 100 | – | – | –
10 | Cc1cc2oc(-c3cccc(N)c3)cc(=O)c2c([N+](=O)[O-])c1C [FBLGS-76] | 2.3 | > 100 | > 100 | – | – | –
11 | O=c1c(O)c(-c2ccc(O)c(O)c2)oc2cc(O)cc(O)c12 [FBLGS-84] | 7.42 | – | > 100 | – | – | –
12 | COc1cc(-c2cc(=O)c3c(O)c(OC)c(O)cc3o2)ccc1O [FBLGS-86] | 3.1 | > 100 | > 100 | – | – | –
13 | COc1cc(O)c2c(=O)c(O)c(-c3ccc(O)c(O)c3)oc2c1 [FBLGS-78] | 5.73 | > 100 | > 100 | – | – | –
14 | COc1cc(-c2cc(=O)c3c(O)c(OC)c(OC)cc3o2)ccc1O [FBLGS-85] | 1.5 | > 100 | > 100 | – | – | –
15 | COc1ccc(-c2cc(=O)c3c(O)c(C/C=C(\C)CCC=C(C)C)c(O)cc3o2)cc1OC [FBL-03D] | – | – | – | – | > 30000 | > 30000
16 | O=c1cc(-c2ccccc2)oc2cc(O)cc(O)c12 [FBLGS-75] | 4.57 | > 100 | > 100 | – | – | –
17 | COc1cc(-c2cc(=O)c3c(O)c(CC=C(C)C)c(O)cc3o2)ccc1O [FBL-03B] | – | – | – | 11 | < 1000 | > 1000
18 | COc1cc(-c2cc(=O)c3c(O)cc(O)c(CC=C(C)C)c3o2)ccc1O [FBL-03G] | – | – | – | 9.5 | < 1000 | > 1000

— patent publication US20180353462A1, “[…] AGENTS […] FLAVONOID DERIVATIVES TARGETING KINASES, SIRTUINS AND ONCOGENIC AGENTS FOR THE TREATMENT OF CANCERS” (priority 2015, published 2018)
